The values that follow come from US8778400B2, “Nanoparticle-stabilized capsule formulation for treatment of inflammation” (University of South Australia, priority 2008, dated 2014).

In brackets after ≈: the same amount, converted by molar mass.

Data set [1] is described as follows: Equilibrium solubility of celecoxib in phosphate buffer containing SLS. It counts as physicochemical. As to conditions: for folds of saturation volume (FSV): 900 ml media for 2 mg celecoxib; for solubility thermodynamic at 48 h: phosphate buffer, 37 °C, thermodynamic from solid. As for the experimental part: The mixture was shaken in a thermostated mixer chamber (37° C.) for 48 h. Equilibrated samples were centrifuged at 9,400 g for 15 min to remove undissolved materials. The amount of celecoxib dissolved was assayed using the HPLC method outlined above.

The nature of data set [2]: In vitro dissolution study of celecoxib formulations (USP type II paddle). The settings on record: phosphate buffer, 0.5% SLS, 37° C. The class given is physicochemical. As for the experimental part:
The in vitro dissolution study was performed in 900 ml of phosphate buffer (0.05 M, pH 7.2) containing 0, 0.05, and 0.5% (w/v) SLS, using USP 23 type II apparatus (paddle method) operating at 75±0.02 rpm. Each sample, containing ˜2 mg of celecoxib (equivalent to the amount used in the in vivo studies), was added into the dissolution medium maintained at 37±0.5° C. Aliquots of 3 ml were drawn at fixed time points and replaced with an equal volume of fresh dissolution medium. The drawn samples were centrifuged at 9,400 g for 15 min to remove undissolved materials. The supernatant was subjected to another cycle of centrifugation under the same conditions. An aliquot of 100 μl was taken from the middle portion of each centrifuged samples before diluted 2-fold with acetonitrile. […] The amount of celecoxib dissolved in the dissolution media was analysed by HPLC as described previously.
SLS was employed as a wetting and solubilising agent in the dissolution medium for simulating the sink effect in the gastrointestinal tract. The dissolution profiles of celecoxib from various formulations are illustrated in FIG. 3. […] The influence of silica nanoparticle layers of different hydrophobicity in controlling drug release from homogenised liquid emulsions has been previously investigated (Simovic et al., 2007). Here, the dissolution profiles of celecoxib from spray-dried capsules formulated with hydrophilic silica were obtained. Two dissolution parameters were evaluated from the study employing sink conditions: the dissolution efficiency (% DE), and the time to achieve 50% of drug dissolution (t50%) (Table 2). % DE is the area under the dissolution curve between two specified time points expressed as a percentage of the area of the rectangle described by 100% dissolution in the same time intervals, which can be calculated using Eq. (II): […]

Data set [3] in a line: Distribution ratio of celecoxib in Miglyol oil and phosphate buffer. As to conditions: Miglyol oil and blank phosphate buffer. It counts as physicochemical.
Data set [4] can be described thus: Solubility of celecoxib in Miglyol oil. The class given is physicochemical. The settings on record: oil or lipid.
For data set [5] the following is noted: cited from earlier work.
For data set [6] the following is noted: after oral delivery; cited from earlier work.
For another data set, the system named is prostaglandin E2. As to conditions: reported for humans, based on inhibitory effect on prostaglandin E2; cited from earlier work.
Data set [7] can be described thus: In vitro dissolution of indomethacin under sink conditions (USP paddle). It counts as physicochemical. The settings on record: 25 mg indomethacin, phosphate buffer pH 7.2, sink conditions. As for the experimental part:
DSC was performed using TA Instruments Q100 differential scanning calorimeter. A 15 mg sample was heated in an aluminium pan at a rate of […] over a temperature range of 25-200° C., under a flow of dry nitrogen gas (80 ml/min). Instrument calibration was undertaken using an indium standard. Powder XRD patterns were obtained using Philips (PW 1050/25) X-ray diffractometer with CoKα radiation (45 kV, 35 mA). The samples were scanned between 10-50° (2θ) at a rate of 1.0°/min. […] The HPLC system (Hewlett Packard 1100) consisted of a series […] auto sampler and G1314A variable UV detector (Shimadzu Corporation). Separation was achieved using a LiChrospher 100 RP-18 analytical column (5 μm, 100 mm×4.6 mm i.d.). […] All chromatographic separations were performed at room temperature at a flow rate of 1 mL/min. The column eluent was monitored at a wavelength of 320 nm. […] The dissolution tests under sink conditions were performed using a USP paddle system (Vankel) and kept at a controlled 37° C. […] The paddle was rotated at 50 rpm. Samples (5 mL) were taken every 15 minutes for 3 h. […] The samples were measured using HPLC. […] With the conventional assumption that the rate and extent of drug dissolution directly reflects the concentration of readily absorbable drug in the intestinal lumen, it is proposed that capsules have the potential to enhance the oral absorption process. […]

Broadly, the solubility (thermodynamic) is solubility found after equilibrating the solid with the medium. The term solubility denotes the concentration that dissolves in the medium under given conditions. Read a low solubility as little dissolved substance. As to `Cc1ccc(-c2cc(C(F)(F)F)nn2-c2ccc(S(N)(=O)=O)cc2)cc1` [celecoxib, 4-[5-(4-methylphenyl)-3-(trifluoromethyl)pyrazol-1-yl]benzenesulfonamide], the “folds of saturation volume (FSV)” value in data set [1] (0% SLS) was found to be 0.9; in data set [1] (0.05% SLS) it was 1.0; in data set [1] (0.25% SLS), 1.4; in data set [1] (0.5% SLS), 3.6; in data set [1] (1.0% SLS), 53.6. Also, the solubility (thermodynamic) at 48 h in data set [1] (pH 7.2, aqueous buffer, phosphate buffer pH 7.2, 0% SLS) amounted to 2.11 ± 0.01 µg/mL (≈ 5.53 µM); in data set [1] (pH 7.2, aqueous with cosolvent or surfactant or cyclodextrin, 0.05% SLS), 2.33 ± 0.15 µg/mL (≈ 6.11 µM); in data set [1] (pH 7.2, aqueous with cosolvent or surfactant or cyclodextrin, 0.25% SLS), 3.2 ± 0.16 µg/mL (≈ 8.39 µM); in data set [1] (pH 7.2, aqueous with cosolvent or surfactant or cyclodextrin, 0.5% SLS), 8 ± 0.39 µg/mL (≈ 21 µM); in data set [1] (pH 7.2, aqueous with cosolvent or surfactant or cyclodextrin, 1.0% SLS), 119 ± 29 µg/mL (≈ 312 µM). For the same compound, the “t50% (time to achieve 50% of drug dissolution)” value in data set [2] is on record as 144.8 min. For the same compound, the “Dissolution efficiency (% DE)” value in data set [2] (t = 5 min) is 8.9 ± 1%; in data set [2] (t = 15 min), 24.3 ± 5%; in data set [2] (t = 180 min) it was 48.9 ± 3%. Moreover, in data set [3], the “distribution ratio (log D)” value was 3.7. For the same compound, the solubility in data set [4] is approximately 10000 µg/mL (≈ 26200 µM). In addition, the “log P” value in data set [5] is “≈ 3.5”. Also, the Tmax result in data set [6] is on record as “approximately three”. Also, the “minimum effective pain-relieving plasma concentration” value with prostaglandin E2 is approximately 155 ng/mL.

As for `COc1ccc2c(c1)c(CC(=O)O)c(C)n2C(=O)c1ccc(Cl)cc1` [Indomethacin, 1-(4-chlorobenzoyl)-5-methoxy-2-methyl-1-H-indole-3-acetic acid], the “t50% (time taken to achieve 50% of drug dissolution)” value in data set [7] was found to be 58.8 ± 0.5 min.
